# Data reported in patent publication US20230416205A1, “COMPOUNDS, COMPOSITIONS, AND METHODS” (Denali Therapeutics Inc, priority 2020, published 2023).
# Read-outs that look alike come from different tables or passages of the source.
# System: NLRP3
# Assay: IL-1β secretion assay in PMA-differentiated, LPS/nigericin-stimulated THP-1 cells (384-well, ELISA read-out)
# Format: cell-based, human
# Settings: Homo sapiens
# Outline: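 THP-1 cells differentiated with PMA (5 ng/mL, 40 h), primed in serum-free medium with 25 ng/mL LPS for 2 h, treated with compounds 1 h (0.5% DMSO), then stimulated with nigericin for 2 h at 37 °C. Supernatant IL-1β measured by ELISA; responses normalized to LPS+5 μM nigericin and LPS-only controls.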
# [1] = THP-1, IL-1β secretion, PMA-differentiated THP-1 cells, LPS then nigericin stimulation, ELISA read at 450 nm, read-out: Activity
# [2] = THP-1, Table 4, IL-1β secretion, LPS/nigericin-stimulated THP-1 cells, read-out: IC50
SMILES,IC50 [1],IC50 [2]
"CS(=O)(=O)NCCNC(=O)CN1CC2(CC2)c2cc(Br)ccc2C1=O [Example 137, 2-(6-bromo-1-oxospiro[3H-isoquinoline-4,1′-cyclopropane]-2-yl)-N-[2-(methanesulfonamido)ethyl]acetamide]",> 15 µM,21.9 µM
"COCCn1cc(NC(=O)CN2CC3(CC3)c3cc(Br)ccc3C2=O)cn1 [Example 138, 2-(6-bromo-1-oxospiro[3H-isoquinoline-4,1′-cyclopropane]-2-yl)-N-[1-(2-methoxyethyl)pyrazol-4-yl]acetamide]",> 15 µM,20.5 µM
"CS(=O)(=O)CCNC(=O)CN1CC2(CC2)c2cc(Br)ccc2C1=O [Example 139, 2-(6-bromo-1-oxospiro[3H-isoquinoline-4,1′-cyclopropane]-2-yl)-N-(2-methylsulfonylethyl)acetamide]",> 15 µM,26.4 µM
"O=C(CN1CC2(CC2)c2cc(Br)ccc2C1=O)Nc1ccc2ncsc2c1 [Example 140, N-(1,3-benzothiazol-6-yl)-2-(6-bromo-1-oxospiro[3H-isoquinoline-4,1′-cyclopropane]-2-yl)acetamide]",< 10 µM,0.889 µM
"Cn1ncc2cc(NC(=O)CN3CC4(CC4)c4cc(Br)ccc4C3=O)ccc21 [Example 141, 2-(6-bromo-1-oxospiro[3H-isoquinoline-4,1′-cyclopropane]-2-yl)-N-(1-methylindazol-5-yl)acetamide]",< 10 µM,1.23 µM
"Cc1nc(-c2cccc(NC(=O)CN3CC4(CC4)c4cc(Br)ccc4C3=O)c2)cs1 [Example 142, 2-(6-bromo-1-oxospiro[3H-isoquinoline-4,1′-cyclopropane]-2-yl)-N-[3-(2-methyl-1,3-thiazol-4-yl)phenyl]acetamide]",< 10 µM,1.78 µM
"Cc1nc2ccc(NC(=O)CN3CC4(CC4)c4cc(Br)ccc4C3=O)cc2s1 [Example 143, 2-(6-bromo-1-oxospiro[3H-isoquinoline-4,1′-cyclopropane]-2-yl)-N-(2-methyl-1,3-benzothiazol-6-yl)acetamide]",< 10 µM,1.41 µM
"Cc1cc(NC(=O)CN2CC3(CC3)c3cc(Br)ccc3C2=O)n(C)n1 [Example 144, 2-(6-bromo-1-oxospiro[3H-isoquinoline-4,1′-cyclopropane]-2-yl)-N-(2,5-dimethylpyrazol-3-yl)acetamide]",< 10 µM,3.91 µM
"O=C(CN1CC2(CC2)c2cc(Br)ccc2C1=O)Nc1nc2ccccc2[nH]1 [Example 145, N-(1H-benzimidazol-2-yl)-2-(6-bromo-1-oxospiro[3H-isoquinoline-4,1′-cyclopropane]-2-yl)acetamide]",< 10 µM,2.66 µM
"O=C(CN1CC2(CC2)c2cc(Br)ccc2C1=O)Nc1ccc2scnc2c1 [Example 146, N-(1,3-benzothiazol-5-yl)-2-(6-bromo-1-oxospiro[3H-isoquinoline-4,1′-cyclopropane]-2-yl)acetamide]",< 10 µM,2.74 µM
"Cn1cnc2cc(NC(=O)CN3CC4(CC4)c4cc(Br)ccc4C3=O)ccc21 [Example 147, 2-(6-bromo-1-oxospiro[3H-isoquinoline-4,1′-cyclopropane]-2-yl)-N-(1-methylbenzimidazol-5-yl)acetamide]",< 10 µM,8.12 µM
"O=C(CN1CC2(CC2)c2cc(Br)ccc2C1=O)Nc1cccc2ccncc12 [Example 148, 2-(6-bromo-1-oxospiro[3H-isoquinoline-4,1′-cyclopropane]-2-yl)-N-isoquinolin-8-ylacetamide]",< 10 µM,1.79 µM
"Cc1cc(NC(=O)CN2CC3(CC3)c3cc(Br)ccc3C2=O)n(-c2ccccc2)n1 [Example 149, 2-(6-bromo-1-oxospiro[3H-isoquinoline-4,1′-cyclopropane]-2-yl)-N-(5-methyl-2-phenylpyrazol-3-yl)acetamide]",< 10 µM,6.58 µM
"Cc1cc(C)nc(NC(=O)CN2CC3(CC3)c3cc(Br)ccc3C2=O)c1 [Example 150, 2-(6-bromo-1-oxospiro[3H-isoquinoline-4,1′-cyclopropane]-2-yl)-N-(4,6-dimethylpyridin-2-yl)acetamide]",< 10 µM,2.1 µM
O=C(CN1CC2(CC2)c2cc(Br)ccc2C1=O)NCc1cccnc1C(F)(F)F [Example 151],< 10 µM,9.06 µM
"O=C(CN1CC2(CC2)c2cc(Br)ccc2C1=O)Nc1ccnn1-c1ccccc1 [Example 152, 2-(6-bromo-1-oxospiro[3H-isoquinoline-4,1′-cyclopropane]-2-yl)-N-(2-phenylpyrazol-3-yl)acetamide]",> 15 µM,21.6 µM
"O=C(CN1CC2(CC2)c2cc(Br)ccc2C1=O)Nc1cncc2ccccc12 [Example 153, 2-(6-bromo-1-oxospiro[3H-isoquinoline-4,1′-cyclopropane]-2-yl)-N-isoquinolin-4-ylacetamide]",> 15 µM,32.9 µM

SMILES,IC50 [1],IC50 [2]
"Cc1c[nH]c(=O)c(NC(=O)CN2CC3(CC3)c3cc(Br)ccc3C2=O)c1 [Example 154, 2-(6-bromo-1-oxospiro[3H-isoquinoline-4,1′-cyclopropane]-2-yl)-N-(5-methyl-2-oxo-1H-pyridin-3-yl)acetamide]",< 10 µM,4.33 µM
"O=C(CN1CC2(CC2)c2cc(Br)ccc2C1=O)Nc1cccn2ccnc12 [Example 155, 2-(6-bromo-1-oxospiro[3H-isoquinoline-4,1′-cyclopropane]-2-yl)-N-imidazo[1,2-a]pyridin-8-ylacetamide]",< 10 µM,3.61 µM
"O=C(CN1CC2(CC2)c2cc(Br)ccc2C1=O)Nc1cnc2[nH]ccc2c1 [Example 156, 2-(6-bromo-1-oxospiro[3H-isoquinoline-4,1′-cyclopropane]-2-yl)-N-(1H-pyrrolo[2,3-b]pyridin-5-yl)acetamide]",< 10 µM,4.39 µM
"O=C(CN1CC2(CC2)c2cc(Br)ccc2C1=O)Nc1ccc2c(c1)OC(F)(F)O2 [Example 157, 2-(6-bromo-1-oxospiro[3H-isoquinoline-4,1′-cyclopropane]-2-yl)-N-(2,2-difluoro-1,3-benzodioxol-5-yl)acetamide]",< 10 µM,9.98 µM
"O=C1c2ccc(Br)cc2C2(CC2)CN1CC(=O)N1CCc2cccnc21 [Example 158, 6-bromo-2-[2-(2,3-dihydropyrrolo[2,3-b]pyridin-1-yl)-2-oxoethyl]spiro[3H-isoquinoline-4,1′-cyclopropane]-1-one]",< 10 µM,5.9 µM
"O=C(CN1CC2(CC2)c2cc(Br)ccc2C1=O)Nc1ccc2nncn2c1 [Example 159, 2-(6-bromo-1-oxospiro[3H-isoquinoline-4,1′-cyclopropane]-2-yl)-N-([1,2,4]triazolo[4,3-a]pyridin-6-yl)acetamide]",< 10 µM,1.77 µM
"O=C(CN1CC2(CC2)c2cc(Br)ccc2C1=O)NC1(CO)CC1 [Example 160, 2-(6-bromo-1-oxospiro[3H-isoquinoline-4,1′-cyclopropane]-2-yl)-N-[1-(hydroxymethyl)cyclopropyl]acetamide]",< 10 µM,4.2 µM
"O=C(CN1CC2(CC2)c2cc(Br)ccc2C1=O)NC1(c2ccccc2)CC1 [Example 161, 2-(6-bromo-1-oxospiro[3H-isoquinoline-4,1′-cyclopropane]-2-yl)-N-(1-phenylcyclopropyl)acetamide]",< 10 µM,6.12 µM
"O=C(CN1CC2(CC2)c2cc(Br)ccc2C1=O)Nc1cccc2ncccc12 [Example 162, 2-(6-bromo-1-oxospiro[3H-isoquinoline-4,1′-cyclopropane]-2-yl)-N-quinolin-5-ylacetamide]",< 10 µM,3.54 µM
"O=C(CN1CC2(CC2)c2cc(Br)ccc2C1=O)Nc1ncc(F)s1 [Example 163, 2-(6-bromo-1-oxospiro[3H-isoquinoline-4,1′-cyclopropane]-2-yl)-N-(5-fluoro-1,3-thiazol-2-yl)acetamide]",< 10 µM,6.66 µM
"O=C(CN1CC2(CC2)c2cc(Br)ccc2C1=O)NCC1CCC1 [Example 164, 2-(6-bromo-1-oxospiro[3H-isoquinoline-4,1′-cyclopropane]-2-yl)-N-(cyclobutylmethyl)acetamide]",< 10 µM,6.01 µM
"O=C(CN1CC2(CC2)c2cc(Br)ccc2C1=O)NC1CCN(c2ccc(Cl)nn2)CC1 [Example 165, 2-(6-bromo-1-oxospiro[3H-isoquinoline-4,1′-cyclopropane]-2-yl)-N-[1-(6-chloropyridazin-3-yl)piperidin-4-yl]acetamide]",< 10 µM,1.63 µM
"O=C(CN1CC2(CC2)c2cc(Br)ccc2C1=O)Nc1n[nH]c2ccccc12 [Example 166, 2-(6-bromo-1-oxospiro[3H-isoquinoline-4,1′-cyclopropane]-2-yl)-N-(1H-indazol-3-yl)acetamide]",< 10 µM,4.84 µM
"O=C(CN1CC2(CC2)c2cc(Br)ccc2C1=O)Nc1ccc2[nH]nnc2c1 [Example 167, N-(1H-benzotriazol-5-yl)-2-(6-bromo-1-oxospiro[3H-isoquinoline-4,1′-cyclopropane]-2-yl)acetamide]",< 10 µM,0.146 µM
"O=C(CN1CC2(CC2)c2cc(Br)ccc2C1=O)Nc1cc(C2CC2)n[nH]1 [Example 168, 2-(6-bromo-1-oxospiro[3H-isoquinoline-4,1′-cyclopropane]-2-yl)-N-(3-cyclopropyl-1H-pyrazol-5-yl)acetamide]",< 10 µM,2.83 µM
"O=C(CN1CC2(CC2)c2cc(Br)ccc2C1=O)Nc1ccc2nc[nH]c2c1 [Example 169, N-(3H-benzimidazol-5-yl)-2-(6-bromo-1-oxospiro[3H-isoquinoline-4,1′-cyclopropane]-2-yl)acetamide]",< 10 µM,0.605 µM
